In article PMC2889921 (The Journal of organic chemistry, 2009):

Target: T1, PKCζ (protein kinase C ζ) (Homo sapiens, UniProt Q05513)
T1 sequence (Q05513 1-592): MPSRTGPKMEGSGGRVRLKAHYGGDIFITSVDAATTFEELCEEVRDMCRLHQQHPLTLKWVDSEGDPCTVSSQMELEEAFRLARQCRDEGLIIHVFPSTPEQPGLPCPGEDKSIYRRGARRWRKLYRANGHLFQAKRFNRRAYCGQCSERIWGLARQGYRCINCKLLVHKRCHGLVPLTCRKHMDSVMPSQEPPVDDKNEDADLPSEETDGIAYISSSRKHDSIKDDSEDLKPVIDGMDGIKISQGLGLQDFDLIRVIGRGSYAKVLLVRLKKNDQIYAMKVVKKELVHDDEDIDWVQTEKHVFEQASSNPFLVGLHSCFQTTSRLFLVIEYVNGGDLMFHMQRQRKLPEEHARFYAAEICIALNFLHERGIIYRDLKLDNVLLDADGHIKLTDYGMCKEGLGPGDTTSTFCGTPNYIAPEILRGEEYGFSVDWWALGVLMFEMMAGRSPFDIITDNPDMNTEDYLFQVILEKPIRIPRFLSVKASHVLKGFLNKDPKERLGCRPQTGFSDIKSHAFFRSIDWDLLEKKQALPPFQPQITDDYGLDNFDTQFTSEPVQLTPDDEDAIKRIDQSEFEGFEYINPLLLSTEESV
Test: homogeneous TR-FRET kinase activity assay
Type: biochemical

Substance | IC50
fibrosterol sulfate B [compound 2] | 5.6 µM
fibrosterol sulfate A [compound 1] | 16.4 µM
